The text below walks through data of article PMC11234460, “In Silico Discovery of Stapled Peptide Inhibitor Targeting the Nur77‐PPARγ Interaction and Its Anti‐Breast‐Cancer Efficacy” (Advanced Science, 2024).

Broadly, the half-life is the time needed for the level to fall by half in the phase considered.

Where a SMILES comes first, the peptide text is derived from it. Bridges are numbered along the chain shown (N, C = ends). [ ]: non-standard residue; d: D form. S5 = C=CCCC[C@](C)(N)C(=O)O

The target in data set [1] is α-chymotrypsin (Bos taurus, UniProt P00766). Briefly: Protease stability in α-chymotrypsin solution. The format is in vitro ADME. As to conditions: α-chymotrypsin, PBS pH 7.4, room temperature. The protocol: (§1) The peptides were dissolved in PBS (pH 7.4) to a final concentration of 1 × 10^−3 M. α‐Chymotrypsin was dissolved in PBS (5 × 10^−2 M, containing 2 × 10^−3 M CaCl2, pH 7.4) to a final concentration of 0.5 ng µL^−1. Subsequently, 100 µL peptides were incubated with α‐chymotrypsin (1 mL) at room temperature, and 100 µL of the digestion mixture was collected at different times (5/10/20/30/60/120/240/480 min) and added to a centrifuge tube containing 20 µL of 1 M HCl to quench the enzymatic reaction. The solution of α‐Chymotrypsin peptide fragments was monitored by analytical HPLC to determine the fraction of protease degradation at 214 nm.

Data set [2] has as its system α-chymotrypsin. The experiment in a line: Protease stability in α-chymotrypsin solution. The format is in vitro ADME. As to conditions: α-chymotrypsin solution; α-chymotrypsin 0.5 ng µL^−1 in PBS (5 × 10^−2 M, 2 × 10^−3 M CaCl2, pH 7.4); 100 µL of 1 × 10^−3 M peptide + 1 mL enzyme; room temperature; 5-480 min; quenched with 1 M HCl; analytical HPLC at 214 nm. The protocol: as §1

Data set [3] relates to MCF7 cells. The experiment in a line: Western blot of Nur77, CD36 and FABP4. The format is cell-based, human. How it is done: MCF7 and MDA‐MB‐231 cells were treated with various concentrations of peptide. The cells were then collected and lysed in NP40 lysis buffer. Total protein was quantified using a BCA assay kit (Beyotime, P0010S). The proteins were separated by SDS‐PAGE and transferred onto a PVDF membrane. The PVDF membrane was blocked in TBST containing 5% non‐fat milk, and then incubated with primary antibodies overnight at 4 °C. Subsequently, membranes were incubated with horseradish peroxidase‐conjugated antirabbit or antimouse IgG secondary antibody for 1 h at room temperature. The membranes were analyzed by a Tanon‐5200 Multi Gel Imaging Analysis System (Tanon) and quantified by ImageJ software.
Background: Immunoblotting shows a protein as a band on a membrane.

Data set [4] concerns MCF7 cells. The experiment in a line: Energy metabolism analysis (Seahorse OCR). As to conditions: MCF7, 24 h treatment, n = 3. It counts as cell-based, human. The protocol: Cell energy metabolism analysis was conducted using a Seahorse cell energy metabolism analyzer (Agilent, USA). In brief, 8000 cells were seeded per well in a 96‐well XF96 plate (Agilent, 103794‐100) and cultured overnight. Subsequently, the cells were treated with various concentrations of peptides for 24 h. To prepare for metabolic stress injections, cartridge plates (Agilent, w15023) were hydrated with H2O for at least 12 h at 37 °C before the assay. 1 h before detection, the medium in each well was replaced with 180 µL XF calibrant solution (Agilent, 100840‐000), Afterward, the cell plate was replaced with 180 µL XF DMEM (Agilent, 103575‐100) with glucose (1 × 10^−2 M) (Agilent, 103577‐100), pyruvate (1 × 10^−3 M) (Agilent, 103578‐100) and glutamine (2 × 10^−3 M) (Agilent, 103579‐100) and the mixture was incubated in a CO2‐free incubator at 37 °C for 1 h. Then, 20 µL basic medium, 22 µL 1.5 × 10^−4 M oligomycin, 25 µL 1.5 × 10^−4 M FCCP, and 27 µL 5 × 10^−5 M ROT/AA (Agilent, 10315‐100) were added to wells A, B, C, and D, respectively, of the cartridge plates. The assay was carried out according to the manufacturer's instructions, and the OCR was reported in picomoles per min. The results were normalized to the cell number determined by the CCK‐8 assay.

In data set [5] the test system is MCF7 cells. Briefly: Scratch (wound-healing) assay. It counts as cell-based, human. As to conditions: MCF7, 12 h. How it is done:
(§2) MCF7 and MDA‐MB‐231 cells were seeded in 6‐well plates and cultured overnight. Once the cell density reached 90%, a line was scratched along the center of the 6‐well plate and images were taken randomly in the scratch domain under a microscope. The cells in each well were then treated with peptides of varying concentrations for 12 h, after which images were taken again in the scratch domain. The formula used to calculate the scratch healing rate was as follows: Scratch healing rate (%) = [(Scratch area at 0 h – Scratch area at 12 h) […] Scratch area at 0 h] × 100%.

Another data set has as its system MDA-MB-231 cells. The experiment in a line: Scratch (wound-healing) assay. The format is cell-based. As to conditions: MDA-MB-231, 12 h. How it is done:
as §2

For data set [6], the system named is MDA-MB-231-GFP tumor tissue. The experiment in a line: LC/MS targeted lipid metabolome of xenograft tumor tissue. The format is in vivo, mouse. As to conditions: compared with the control group. The protocol:
To establish the bone metastasis tumor model, 1×10^5 cells were injected into the left ventricle of each mouse (7–8 weeks old), and surgery was monitored using a cardiac ultrasound instrument. The mice were randomly divided into three groups and treated with PBS (control group, n = 6), 5 mg kg^−1 ST‐CY14 (n = 6), and 10 mg kg^−1 ST‐CY14 (n = 6) Tumor cell metastasis was monitored using an in vivo imaging instrument (IVIS Spectrum, PerkinElmer, USA). by intraperitoneal injection of 20 mg kg^−1 D‐luciferin. The mice were treated with ST‐CY14 via intravenous injection using a 100 µL PBS solution every 2 days starting on the designated day after tumor cell injection. Bone tissue with MDA‐BoM‐1833 cell metastasis was obtained and stained for TRAP. The mice sera were collected and analyzed for BSP and β‐CTx levels using ELISA (Lengton, BPE10823, BPE10438). For the orthotopic xenograft tumor model, 3×10^6 cells were injected into the fourth pair of breast pads on the left side of the mouse (4–5 weeks old). The mice were treated with ST‐CY14 every two days once the tumor volume reached 30–50 mm^3, with the same groups as in the bone metastasis tumor model. […]

As for `C[C@@H](O)[C@@H]1NC(=O)[C@H](CCCNC(=N)N)NC(=O)[C@H](CCCNC(=N)N)NC(=O)[C@@](C)(NC(=O)[C@H](Cc2ccccc2)NC(=O)CNC(=O)[C@H](CCCCN)NC(=O)[C@H](CS)NC(=O)CNC(=O)[C@H](CCC(=O)O)NC(=O)[C@@H](N)CS)CCCC=CCCC[C@@](C)(C(=O)N[C@@H](CCCNC(=N)N)C(=O)N[C@@H](Cc2ccc(O)cc2)C(=O)N[C@@H](Cc2ccc(O)cc2)C(=O)NCC(=O)N[C@@H](CCCNC(=N)N)C(=O)N[C@@H](CCCCN)C(=O)N[C@@H](CCCCN)C(=O)N[C@@H](CCCNC(=N)N)C(=O)N[C@@H](CCCNC(=N)N)C(=O)N[C@@H](CCC(N)=O)C(=O)N[C@@H](CCCNC(=N)N)C(=O)N[C@@H](CCCNC(=N)N)C(=O)N[C@@H](CCCNC(=N)N)C(N)=O)NC1=O` [ST-CY14] (H-CEGCKGF[S5]RRT[S5]RYYGRKKRRQRRR-NH2; staple 8-12), the “Improvement of proteolytic half-life versus T-CY14” value at α-chymotrypsin [1] is “seventeen‐fold improvement”. Further, the half-life at 90.9 µM with α-chymotrypsin [2] is 1.46 h. Besides, the “CD36 and FABP4 protein expression (immunoblot)” value with MCF7 cells [3] was “inhibited the protein expression of CD36 and FABP4”. Moreover, in the data set with MCF7 cells [3], the “Nur77 protein expression (immunoblot)” value was “increase in Nur77 expression”. For the same compound, the “Oxygen consumption rate (OCR)” value with MCF7 cells [4] was “significantly reduced”. Moreover, the Scratch healing entry with MCF7 cells [5] and in the data set on MDA-MB-231 cells was “suppressed the scratch healing” in each case. The “Relative abundance of lipid content (FA, PC, TAG, PE) in tumor tissue” value in data set [6] is given as “decreased”.
